Reference: PMC11676667, “Pharmacokinetics of Oral Cannabinoid Δ8-Tetrahydrocannabivarin and Its Main Metabolites in Healthy Participants” (Pharmaceuticals, 2024)
Like-named read-outs stand apart in the source and are kept apart here.

Key:
CB2 receptors = test system: CB2 receptors; parameters: method as in PMID 21470208; conditions: in vitro; cited from earlier work
[1] = Plasma pharmacokinetics after single oral dose of Δ8-THCV in MCT oil (LC-MS/MS, non-compartmental analysis); format: in vivo, human; parameters: Clast (last quantifiable concentration): unit not given here; conditions: for plasma concentration: Predose; for concentration at 0.5 h / concentration at 1 h / concentration at 2 h / concentration at 4 h / concentration at 6 h / concentration at 8 h / AUC(0-t) / Cmax / MRT / Tmax: human; for concentration at 0.5 h / concentration at 1 h / concentration at 2 h / concentration at 4 h / concentration at 6 h / concentration at 8 h: oral; for AUC(0-t) / Cmax / MRT / Tmax: po; for MRT: read-out: MRT (mean residence time); for Tmax: read-out: tmax
How it was run: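 Healthy participants received single oral Δ8-THCV in MCT oil (50 mg/mL; 12.5-200 mg, or placebo) after a high-fat, high-calorie breakfast, with ≥1-week washout. Plasma (K2EDTA) sampled predose and 0.5-8 h post-dose, assayed by validated LC-MS/MS including metabolites; PK by non-compartmental analysis, sub-LLOQ values set to 0.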

[2] = 12.5 mg single oral Δ8-THCV in MCT oil, plasma, Mean (±SD)
[3] = 12.5 mg single oral Δ8-THCV in MCT oil, plasma, Median (Range)
[4] = 25 mg single oral Δ8-THCV in MCT oil, plasma, Mean (±SD)
[5] = 25 mg single oral Δ8-THCV in MCT oil, plasma, Median (Range)
[6] = 50 mg single oral Δ8-THCV in MCT oil, plasma, Mean (±SD)
[7] = 50 mg single oral Δ8-THCV in MCT oil, plasma, Median (Range)
[8] = 100 mg single oral Δ8-THCV in MCT oil, plasma, Mean (±SD)
[9] = 100 mg single oral Δ8-THCV in MCT oil, plasma, Median (Range)
[10] = 200 mg single oral Δ8-THCV in MCT oil, plasma, Mean (±SD)
[11] = 200 mg single oral Δ8-THCV in MCT oil, plasma, Median (Range)
[12] = plasma, 12.5 mg, 12.5 mg Δ8-THCV dose, Mean (SD, %CV)
[13] = plasma, 12.5 mg, 12.5 mg Δ8-THCV dose, Median (IQ Range)
[14] = plasma, 25 mg, 25 mg Δ8-THCV dose, Mean (SD, %CV)
[15] = plasma, 25 mg, 25 mg Δ8-THCV dose, Median (IQ Range)
[16] = plasma, 50 mg, 50 mg Δ8-THCV dose, Mean (SD, %CV)
[17] = plasma, 50 mg, 50 mg Δ8-THCV dose, Median (IQ Range)
[18] = plasma, 100 mg, 100 mg Δ8-THCV dose, Mean (SD, %CV)
[19] = plasma, 100 mg, 100 mg Δ8-THCV dose, Median (IQ Range)
[20] = plasma, 200 mg, 200 mg Δ8-THCV dose, Mean (SD, %CV)
[21] = plasma, 200 mg, 200 mg Δ8-THCV dose, Median (IQ Range)
[22] = plasma, 12.5 mg, 12.5 mg single oral Δ8-THCV in MCT oil, Mean (±SD)
[23] = plasma, 12.5 mg, 12.5 mg single oral Δ8-THCV in MCT oil, Median (Range)
[24] = plasma, 12.5 mg, 12.5 mg single oral Δ8-THCV in MCT oil, plasma, Mean (±SD)
[25] = plasma, 12.5 mg, 12.5 mg single oral Δ8-THCV in MCT oil, plasma, Median (Range)
[26] = plasma, 25 mg, 25 mg single oral Δ8-THCV in MCT oil, Mean (±SD)
[27] = plasma, 25 mg, 25 mg single oral Δ8-THCV in MCT oil, Median (Range)
[28] = plasma, 25 mg, 25 mg single oral Δ8-THCV in MCT oil, plasma, Mean (±SD)
[29] = plasma, 25 mg, 25 mg single oral Δ8-THCV in MCT oil, plasma, Median (Range)
[30] = plasma, 50 mg, 50 mg single oral Δ8-THCV in MCT oil, Mean (±SD)
[31] = plasma, 50 mg, 50 mg single oral Δ8-THCV in MCT oil, Median (Range)
[32] = plasma, 50 mg, 50 mg single oral Δ8-THCV in MCT oil, plasma, Mean (±SD)
[33] = plasma, 50 mg, 50 mg single oral Δ8-THCV in MCT oil, plasma, Median (Range)
[34] = plasma, 100 mg, 100 mg single oral Δ8-THCV in MCT oil, Mean (±SD)
[35] = plasma, 100 mg, 100 mg single oral Δ8-THCV in MCT oil, Median (Range)
[36] = plasma, 100 mg, 100 mg single oral Δ8-THCV in MCT oil, plasma, Mean (±SD)
[37] = plasma, 100 mg, 100 mg single oral Δ8-THCV in MCT oil, plasma, Median (Range)
[38] = plasma, 200 mg, 200 mg single oral Δ8-THCV in MCT oil, Mean (±SD)
[39] = plasma, 200 mg, 200 mg single oral Δ8-THCV in MCT oil, Median (Range)
[40] = plasma, 200 mg, 200 mg single oral Δ8-THCV in MCT oil, plasma, Mean (±SD)
[41] = plasma, 200 mg, 200 mg single oral Δ8-THCV in MCT oil, plasma, Median (Range)

## CCCc1cc(O)c2c(c1)OC(C)(C)[C@@H]1CC=C(CO)C[C@@H]21 (racemic) [11-OH-Δ8-THCV, (±)-11-hydroxy-Δ8-THCV]
CB2 receptors
  CB2 receptor activation: activate CB2 receptors
[1]; [2]
  Clast (last quantifiable concentration): 0.8 (±0.2)
  tlast (time to last quantifiable concentration): 3.6 (±1.7)
[1]; [3]
  Clast (last quantifiable concentration): 0.8 (0.6–1.1)
  tlast (time to last quantifiable concentration): 4 (2–6)
[1]; [4]
  Clast (last quantifiable concentration): 0.8 (±0.1)
  tlast (time to last quantifiable concentration): 4.3 (±1.8)
[1]; [5]
  Clast (last quantifiable concentration): 0.8 (0.6–1)
  tlast (time to last quantifiable concentration): 4 (2–6)
[1]; [6]
  Clast (last quantifiable concentration): 0.9 (±0.3)
  tlast (time to last quantifiable concentration): 7.8 (±0.6)
[1]; [7]
  Clast (last quantifiable concentration): 0.8 (0.6–1.5)
  tlast (time to last quantifiable concentration): 8 (6–8)
[1]; [8]
  Clast (last quantifiable concentration): 1.4 (±0.9)
  tlast (time to last quantifiable concentration): 7.6 (±1.2)
[1]; [9]
  Clast (last quantifiable concentration): 1.1 (0.5–3.8)
  tlast (time to last quantifiable concentration): 8 (4–8)
[1]; [10]
  Clast (last quantifiable concentration): 3.7 (±2.6)
  tlast (time to last quantifiable concentration): 8 (±0)
[1]; [11]
  Clast (last quantifiable concentration): 3.1 (1.2–11.3)
  tlast (time to last quantifiable concentration): 8 (8–8)
[1]; 12.5 mg Δ8-THCV dose, Mean (SD, %CV)
  plasma concentration: 0 (±0, --) ng/mL
[1]; 12.5 mg Δ8-THCV dose, Median (IQ Range)
  plasma concentration: 0 (0–0) ng/mL
[1]; 25 mg Δ8-THCV dose, Mean (SD, %CV)
  plasma concentration: 0 (±0, --) ng/mL
[1]; 25 mg Δ8-THCV dose, Median (IQ Range)
  plasma concentration: 0 (0–0) ng/mL
[1]; 50 mg Δ8-THCV dose, Mean (SD, %CV)
  plasma concentration: 0 (±0, --) ng/mL
[1]; 50 mg Δ8-THCV dose, Median (IQ Range)
  plasma concentration: 0 (0–0) ng/mL
[1]; 100 mg Δ8-THCV dose, Mean (SD, %CV)
  plasma concentration: 0 (±0, --) ng/mL
[1]; 100 mg Δ8-THCV dose, Median (IQ Range)
  plasma concentration: 0 (0–0) ng/mL
[1]; 200 mg Δ8-THCV dose, Mean (SD, %CV)
  plasma concentration: 0 (±0, --) ng/mL
[1]; 200 mg Δ8-THCV dose, Median (IQ Range)
  plasma concentration: 0 (0–0) ng/mL
[1]; after the 200 mg dose, Δ8-THCV = 1
  median AUClast ratio Δ8-THCV-COOH/Δ8-THCV/11-OH-Δ8-THCV: 0.18
[1]; [12]
  concentration at 0.5 h: 0 ng/mL
  concentration at 1 h: 0 ng/mL
  concentration at 2 h: 0.1 ng/mL
  concentration at 4 h: 0.1 ng/mL
  concentration at 6 h: 0.1 ng/mL
  concentration at 8 h: 0 ng/mL
[1]; [13]
  concentration at 0.5 h: 0 ng/mL
  concentration at 1 h: 0 ng/mL
  concentration at 2 h: 0 ng/mL
  concentration at 4 h: 0 ng/mL
  concentration at 6 h: 0 ng/mL
  concentration at 8 h: 0 ng/mL
[1]; [14]
  concentration at 0.5 h: 0 ng/mL
  concentration at 1 h: 0.1 ng/mL
  concentration at 2 h: 0.3 ng/mL
  concentration at 4 h: 0.2 ng/mL
  concentration at 6 h: 0.2 ng/mL
  concentration at 8 h: 0 ng/mL
[1]; [15]
  concentration at 0.5 h: 0 ng/mL
  concentration at 1 h: 0 ng/mL
  concentration at 2 h: 0 ng/mL
  concentration at 4 h: 0 ng/mL
  concentration at 6 h: 0 ng/mL
  concentration at 8 h: 0 ng/mL
[1]; [16]
  concentration at 0.5 h: 0 ng/mL
  concentration at 1 h: 0.1 ng/mL
  concentration at 2 h: 0.4 ng/mL
  concentration at 4 h: 0.6 ng/mL
  concentration at 6 h: 1 ng/mL
  concentration at 8 h: 0.6 ng/mL
[1]; [17]
  concentration at 0.5 h: 0 ng/mL
  concentration at 1 h: 0 ng/mL
  concentration at 2 h: 0 ng/mL
  concentration at 4 h: 0 ng/mL
  concentration at 6 h: 0.9 ng/mL
  concentration at 8 h: 0.6 ng/mL
[1]; [18]
  concentration at 0.5 h: 0 ng/mL
  concentration at 1 h: 1.4 ng/mL
  concentration at 2 h: 1.8 ng/mL
  concentration at 4 h: 2.1 ng/mL
  concentration at 6 h: 2.4 ng/mL
  concentration at 8 h: 1.3 ng/mL
[1]; [19]
  concentration at 0.5 h: 0 ng/mL
  concentration at 1 h: 0.5 ng/mL
  concentration at 2 h: 1 ng/mL
  concentration at 4 h: 1.3 ng/mL
  concentration at 6 h: 1.5 ng/mL
  concentration at 8 h: 1.1 ng/mL
[1]; [20]
  concentration at 0.5 h: 0 ng/mL
  concentration at 1 h: 1.2 ng/mL
  concentration at 2 h: 4.5 ng/mL
  concentration at 4 h: 5.2 ng/mL
  concentration at 6 h: 4.6 ng/mL
  concentration at 8 h: 3.7 ng/mL
[1]; [21]
  concentration at 0.5 h: 0 ng/mL
  concentration at 1 h: 0 ng/mL
  concentration at 2 h: 1.8 ng/mL
  concentration at 4 h: 3.4 ng/mL
  concentration at 6 h: 3.7 ng/mL
  concentration at 8 h: 3.1 ng/mL
[1]; [22]
  AUC(0-t): 0.7 ng·h/mL
  Cmax: 0.8 ng/mL
[1]; [23]
  AUC(0-t): 0.8 ng·h/mL
  Cmax: 0.8 ng/mL
[1]; [24]
  MRT: 1.5 h
  Tmax: 3.4 h
[1]; [25]
  MRT: 1.4 h
  Tmax: 4 h
[1]; [26]
  AUC(0-t): 1.5 ng·h/mL
  Cmax: 0.9 ng/mL
[1]; [27]
  AUC(0-t): 0.8 ng·h/mL
  Cmax: 0.8 ng/mL
[1]; [28]
  MRT: 3.6 h
  Tmax: 3.7 h
[1]; [29]
  MRT: 3.6 h
  Tmax: 4 h
[1]; [30]
  AUC(0-t): 6.2 ng·h/mL
  Cmax: 2 ng/mL
[1]; [31]
  AUC(0-t): 5.3 ng·h/mL
  Cmax: 1.9 ng/mL
[1]; [32]
  MRT: 5.7 h
  Tmax: 5 h
[1]; [33]
  MRT: 6.1 h
  Tmax: 6 h
[1]; [34]
  AUC(0-t): 13.9 ng·h/mL
  Cmax: 4.3 ng/mL
[1]; [35]
  AUC(0-t): 12.4 ng·h/mL
  Cmax: 3.4 ng/mL
[1]; [36]
  MRT: 4.6 h
  Tmax: 4.2 h
[1]; [37]
  MRT: 4.3 h
  Tmax: 5 h
[1]; [38]
  AUC(0-t): 30.8 ng·h/mL
  Cmax: 8.7 ng/mL
[1]; [39]
  AUC(0-t): 29.5 ng·h/mL
  Cmax: 6.4 ng/mL
[1]; [40]
  MRT: 4.8 h
  Tmax: 4.7 h
[1]; [41]
  MRT: 4.7 h
  Tmax: 4 h
[1]; of 504 plasma samples from 15 participants after oral Δ8-THCV
  number of positive plasma samples: 157
[1]; one subject after oral Δ8-THCV in MCT oil, Figure A1
  concentration in representative plasma sample: 11.8 ng/mL
[1]; oral Δ8-THCV, plasma
  tmax later after doses greater than 50 mg compared to the 12.5 mg and 25 mg doses: 1.3 fold
